Measured values published in BigSolDB 2.1.

O=C(O)c1ccccc1C(=O)O
Conditions | solubility (mole fraction)
in DMAc, 295.05 K | 0.163
in DMAc, 296.15 K | 0.168
in DMAc, 298.35 K | 0.18
in DMAc, 301.15 K | 0.193
in DMAc, 302.95 K | 0.201
in DMAc, 305.05 K | 0.211
in DMAc, 306.35 K | 0.22
in DMAc, 308.15 K | 0.229
in DMAc, 309.25 K | 0.238
in DMAc, 310.65 K | 0.249
in DMAc, 312.15 K | 0.258
in DMAc, 313.15 K | 0.268
in DMAc, 314.35 K | 0.276
in DMAc, 316.05 K | 0.286
in DMAc, 316.65 K | 0.295
in DMAc, 318.15 K | 0.305
in DMAc, 319.15 K | 0.314
in DMAc, 321.15 K | 0.323
in DMAc, 323.15 K | 0.334
in DMAc, 325.05 K | 0.343
in DMAc, 326.85 K | 0.353
in DMAc, 328.15 K | 0.362
in DMAc, 329.35 K | 0.373
in DMAc, 330.35 K | 0.381
in DMAc, 331.25 K | 0.389
in DMAc, 331.95 K | 0.396
in DMAc, 333.15 K | 0.405
in DMAc, 333.95 K | 0.415
in DMAc, 334.95 K | 0.427
in DMF, 304.15 K | 0.399
in DMF, 309.15 K | 0.42
in DMF, 311.05 K | 0.426
in DMF, 314.65 K | 0.435
in DMF, 316.75 K | 0.441
in DMF, 319.15 K | 0.446
in DMF, 323.35 K | 0.464
in DMF, 326.15 K | 0.476
in DMF, 328.65 K | 0.481
in DMF, 330.75 K | 0.491
in DMF, 332.45 K | 0.499
in DMF, 335.35 K | 0.509
in DMF, 338.25 K | 0.516
in DMF, 342.15 K | 0.528
in DMSO, 291.55 K | 0.333
in DMSO, 304.25 K | 0.344
in DMSO, 306.25 K | 0.348
in DMSO, 309.65 K | 0.352
in DMSO, 313.65 K | 0.354
in DMSO, 317.25 K | 0.357
in DMSO, 321.65 K | 0.362
in DMSO, 324.15 K | 0.364
in DMSO, 328.15 K | 0.368
in DMSO, 331.35 K | 0.37
in DMSO, 335.15 K | 0.373
in DMSO, 339.65 K | 0.378
in DMSO, 342.15 K | 0.38
in NMP, 293.55 K | 0.0649
in NMP, 298.35 K | 0.0801
in NMP, 303.25 K | 0.0925
in NMP, 305.15 K | 0.0988
in NMP, 307.95 K | 0.105
in NMP, 310.15 K | 0.116
in NMP, 314.05 K | 0.128
in NMP, 319.25 K | 0.147
in NMP, 321.65 K | 0.158
in NMP, 325.15 K | 0.173
in NMP, 327.25 K | 0.184
in NMP, 330.15 K | 0.202
in NMP, 333.25 K | 0.219
in acetonitrile, 296.95 K | 0.0247
in acetonitrile, 302.05 K | 0.0282
in acetonitrile, 308.25 K | 0.0323
in acetonitrile, 314.65 K | 0.0367
in acetonitrile, 318.35 K | 0.039
in acetonitrile, 321.15 K | 0.0402
in acetonitrile, 323.35 K | 0.0417
in acetonitrile, 325.15 K | 0.0429
in acetonitrile, 327.15 K | 0.0443
in acetonitrile, 329.15 K | 0.0457
in acetonitrile, 330.95 K | 0.048
in acetonitrile, 332.75 K | 0.0491
in acetonitrile, 334.35 K | 0.0504
in n-methylformamide, 294.35 K | 0.184
in n-methylformamide, 298.95 K | 0.19
in n-methylformamide, 303.35 K | 0.196
in n-methylformamide, 307.35 K | 0.201
in n-methylformamide, 311.15 K | 0.203
in n-methylformamide, 315.35 K | 0.207
in n-methylformamide, 318.95 K | 0.211
in n-methylformamide, 323.15 K | 0.216
in n-methylformamide, 327.95 K | 0.221
in n-methylformamide, 334.35 K | 0.229
in propionic acid, 298.75 K | 0.00308
in propionic acid, 306.65 K | 0.00404
in propionic acid, 312.15 K | 0.00478
in propionic acid, 316.15 K | 0.00524
in propionic acid, 320.65 K | 0.00579
in propionic acid, 323.65 K | 0.00642
in propionic acid, 327.75 K | 0.00704
in propionic acid, 331.35 K | 0.0079
in propionic acid, 335.15 K | 0.00876
in propionic acid, 338.75 K | 0.00983
